Measurements from ChEMBL document CHEMBL1201862, “PubChem BioAssay data set” (2004).
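Where inhibition never reached the appropriate level, the endpoint shown equals the highest concentration tested. Otherwise, values were interpolated linearly from a five-concentration, 48-hour dose response in 96-well plates. Here, GI50 denotes the concentration required for 50% inhibition of growth.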 Calls of active or inactive are those of the source. No stated cut-off is given here; in the data, active = GI50 up to about 1.1 µM and inactive = higher.

Key:
Experiment in all cases: NCI tumour cell line growth inhibition, 48 h
[1] = test system: SNB-75
[2] = test system: U-251
[3] = test system: A498
[4] = test system: SNB-19
[5] = test system: SN12C
[6] = test system: OVCAR-4
[7] = test system: RXF 393
[8] = test system: DLD-1
[9] = test system: KM12
[10] = test system: HCT-15
[11] = test system: HOP-62
[12] = test system: OVCAR-5
[13] = test system: CCRF-CEM
[14] = test system: SF-539
[15] = test system: TK-10
[16] = test system: A549
[17] = test system: UACC-62
[18] = test system: BT-549
[19] = test system: MDA-N
[20] = test system: Hs-578T

Compound | GI50 [1] | GI50 [2] | GI50 [3] | GI50 [4] | GI50 [5] | GI50 [6] | GI50 [7] | GI50 [8] | GI50 [9] | GI50 [10] [µM] | GI50 [11] | GI50 [12] | GI50 [13] | GI50 [14] | GI50 [15] | GI50 [16] | GI50 [17] | GI50 [18] | GI50 [19] | GI50 [20]
Oc1nc(-c2ccccc2)cc(-c2ccccc2O)n1 | 43.9 µM (inactive) | 42.2 µM (inactive) | > 100 µM (inactive) | 58.2 µM (inactive) | 95.5 µM (inactive) | > 100 µM (inactive) | 86.5 µM (inactive) | > 100 µM (inactive) | > 100 µM (inactive) | 83.2 | 30.5 µM (inactive) | 62.5 µM (inactive) | > 100 µM (inactive) | > 100 µM (inactive) | > 100 µM (inactive) | 83.4 µM (inactive) | 77.3 µM (inactive) | – | – | –
CC12CC3(C)CC(C)(C1)CC(N=[N+]=[N-])(C2)C3 | > 100 µM (inactive) | > 100 µM (inactive) | > 100 µM (inactive) | > 100 µM (inactive) | > 100 µM (inactive) | > 100 µM (inactive) | > 100 µM (inactive) | > 100 µM (inactive) | > 100 µM (inactive) | – | > 100 µM (inactive) | > 100 µM (inactive) | > 100 µM (inactive) | > 100 µM (inactive) | > 100 µM (inactive) | > 100 µM (inactive) | > 100 µM (inactive) | – | – | –
CCN(CC)CCOc1ccc(CCc2cc(OC)c(OC)c(OC)c2)cc1 | 31.3 µM (inactive) | 45.3 µM (inactive) | 22 µM (inactive) | > 100 µM (inactive) | > 100 µM (inactive) | 55.3 µM (inactive) | 34.9 µM (inactive) | 64.1 µM (inactive) | 35.3 µM (inactive) | 30.7 | 22.6 µM (inactive) | 22.3 µM (inactive) | 64.1 µM (inactive) | 81.7 µM (inactive) | 30.5 µM (inactive) | 47.3 µM (inactive) | 26.1 µM (inactive) | – | – | –
N/C(=N\O)N/N=C/c1ccc(O)c(O)c1 | > 100 µM (inactive) | > 100 µM (inactive) | > 100 µM (inactive) | > 100 µM (inactive) | > 100 µM (inactive) | > 100 µM (inactive) | > 100 µM (inactive) | > 100 µM (inactive) | > 100 µM (inactive) | > 100 | > 100 µM (inactive) | > 100 µM (inactive) | > 100 µM (inactive) | > 100 µM (inactive) | > 100 µM (inactive) | > 100 µM (inactive) | > 100 µM (inactive) | – | – | –
Cc1c[nH]c2c1C13CC1CN(C(=O)c1cc4cc(NC(=O)c5cc6ccccc6o5)ccc4[nH]1)C3=CC2=O (stereo not given) | < 0.001 µM (active) | < 0.001 µM (active) | < 0.001 µM (active) | < 0.001 µM (active) | < 0.001 µM (active) | < 0.001 µM (active) | < 0.001 µM (active) | < 0.001 µM (active) | < 0.001 µM (active) | < 0.001 | < 0.001 µM (active) | < 0.001 µM (active) | < 0.001 µM (active) | < 0.001 µM (active) | < 0.001 µM (active) | – | < 0.001 µM (active) | – | – | –
CCCCCCCCCCCCCCCC/C(C(=O)OC)=C(/O)C(=O)OCC | 55 µM (inactive) | > 100 µM (inactive) | > 100 µM (inactive) | > 100 µM (inactive) | > 100 µM (inactive) | > 100 µM (inactive) | > 100 µM (inactive) | > 100 µM (inactive) | > 100 µM (inactive) | > 100 | > 100 µM (inactive) | > 100 µM (inactive) | > 100 µM (inactive) | > 100 µM (inactive) | > 100 µM (inactive) | > 100 µM (inactive) | > 100 µM (inactive) | – | – | –
O=C1C(c2ccccc2)=C(c2ccccc2)C(c2ccc(Sc3ccc(C4=C(c5ccccc5)C(=O)C(c5ccccc5)=C4c4ccccc4)cc3)cc2)=C1c1ccccc1 | 31.3 µM (inactive) | 48.6 µM (inactive) | > 100 µM (inactive) | > 100 µM (inactive) | > 100 µM (inactive) | > 100 µM (inactive) | 64.9 µM (inactive) | > 100 µM (inactive) | > 100 µM (inactive) | > 100 | 60.7 µM (inactive) | > 100 µM (inactive) | > 100 µM (inactive) | 72.9 µM (inactive) | > 100 µM (inactive) | > 100 µM (inactive) | > 100 µM (inactive) | – | – | –
O=C(CCCNC(=O)OCc1ccccc1)OCc1ccc2c(c1)C(=O)c1ccccc1C2=O | 20 µM (inactive) | 86.1 µM (inactive) | 27.2 µM (inactive) | 51.4 µM (inactive) | > 10.2 µM (inactive) | > 100 µM (inactive) | 22.2 µM (inactive) | > 100 µM (inactive) | > 100 µM (inactive) | > 100 | 30.6 µM (inactive) | > 100 µM (inactive) | > 100 µM (inactive) | 23.1 µM (inactive) | 34.8 µM (inactive) | > 100 µM (inactive) | > 100 µM (inactive) | – | – | –
CCCCCCN(CCCCCC)C(=S)N/N=C(\C)c1ccccn1 | 0.577 µM (active) | 0.393 µM (active) | 1.86 µM (inactive) | 1.31 µM (inactive) | 0.957 µM (active) | 0.457 µM (active) | 0.973 µM (active) | 1.26 µM (inactive) | 1.05 µM (active) | 0.581 | 1.21 µM (inactive) | 1.63 µM (inactive) | 0.161 µM (active) | 1.09 µM (active) | 0.993 µM (active) | 1.52 µM (inactive) | 1 µM (active) | 1.68 µM (inactive) | 1.32 µM (inactive) | 1.09 µM (active)
COc1ccc(C2C(N)=NCC2c2ccccn2)cc1 (stereo not given) | > 100 µM (inactive) | > 100 µM (inactive) | > 100 µM (inactive) | > 100 µM (inactive) | > 100 µM (inactive) | > 100 µM (inactive) | > 100 µM (inactive) | > 100 µM (inactive) | > 100 µM (inactive) | – | > 100 µM (inactive) | > 100 µM (inactive) | > 100 µM (inactive) | > 100 µM (inactive) | > 100 µM (inactive) | > 100 µM (inactive) | > 100 µM (inactive) | – | – | –
CCOC(=O)C1=C(Nc2ccc(Cl)c(Cl)c2)OC/C1=N\NS(=O)(=O)c1ccc(C)cc1 | 35.8 µM (inactive) | 66.5 µM (inactive) | 44.4 µM (inactive) | 59 µM (inactive) | 57.8 µM (inactive) | 63.5 µM (inactive) | 67.9 µM (inactive) | 39.8 µM (inactive) | 39.5 µM (inactive) | – | 36.7 µM (inactive) | > 100 µM (inactive) | 27.5 µM (inactive) | 37.5 µM (inactive) | 42.5 µM (inactive) | 52.2 µM (inactive) | 39.4 µM (inactive) | – | – | –
Cc1ccc(C)c(NC(=O)C(=O)Nn2c(S)nc3ccccc3c2=O)c1 | > 100 µM (inactive) | > 100 µM (inactive) | > 100 µM (inactive) | > 100 µM (inactive) | > 100 µM (inactive) | > 100 µM (inactive) | > 100 µM (inactive) | > 100 µM (inactive) | > 100 µM (inactive) | > 100 | > 100 µM (inactive) | > 100 µM (inactive) | > 100 µM (inactive) | > 100 µM (inactive) | > 100 µM (inactive) | > 100 µM (inactive) | > 100 µM (inactive) | – | – | –
COC(=O)C(C(=O)C(=O)Nc1ccccc1C(C)=O)c1nc2ccc(Cl)cc2nc1O (stereo not given) | 99.5 µM (inactive) | > 100 µM (inactive) | > 100 µM (inactive) | > 100 µM (inactive) | > 100 µM (inactive) | > 100 µM (inactive) | 89.7 µM (inactive) | > 100 µM (inactive) | > 100 µM (inactive) | > 100 | > 100 µM (inactive) | > 100 µM (inactive) | > 100 µM (inactive) | > 100 µM (inactive) | > 100 µM (inactive) | > 100 µM (inactive) | > 100 µM (inactive) | – | – | –
